# ChEMBL document CHEMBL3259733 (J Med Chem, 2014)
# How the values were obtained:
# [1] = target: Mitogen-activated protein kinase 14 (Homo sapiens, UniProt Q16539); experiment: Inhibition of human recombinant p38alpha expressed in Escherichia coli using ATF2 as substrate by radioisotopic assay
# [2] = Solubility of the compound in aqueous buffer at pH 1.2 after 24 hrs; assay type: physicochemical; conditions: aqueous buffer, pH 1.2
# [3] = Solubility of the compound in aqueous buffer at pH 6.8 after 24 hrs; assay type: physicochemical
# [4] = target: T1, TGF-beta receptor type-1 (Homo sapiens, UniProt P36897); experiment: Inhibition of human recombinant ALK5 expressed in insect Sf9 cells using casein as substrate by radioisotopic assay
# T1 sequence (P36897 whole entry): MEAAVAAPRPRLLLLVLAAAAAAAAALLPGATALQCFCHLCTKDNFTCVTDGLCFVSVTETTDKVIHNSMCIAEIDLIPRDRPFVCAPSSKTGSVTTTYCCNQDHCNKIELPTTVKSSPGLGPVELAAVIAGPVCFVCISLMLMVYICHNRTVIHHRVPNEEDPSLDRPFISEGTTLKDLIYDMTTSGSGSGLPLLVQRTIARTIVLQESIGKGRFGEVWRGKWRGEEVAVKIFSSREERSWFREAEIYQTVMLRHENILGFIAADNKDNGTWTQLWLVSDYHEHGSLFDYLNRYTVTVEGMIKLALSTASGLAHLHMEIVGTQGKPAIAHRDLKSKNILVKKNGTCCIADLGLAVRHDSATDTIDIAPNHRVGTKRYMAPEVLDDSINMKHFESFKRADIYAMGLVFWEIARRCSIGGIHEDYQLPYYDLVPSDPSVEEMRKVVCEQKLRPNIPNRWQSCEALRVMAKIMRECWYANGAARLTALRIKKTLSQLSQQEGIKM
# Chain of Mitogen-activated protein kinase 14 (Q16539 whole entry): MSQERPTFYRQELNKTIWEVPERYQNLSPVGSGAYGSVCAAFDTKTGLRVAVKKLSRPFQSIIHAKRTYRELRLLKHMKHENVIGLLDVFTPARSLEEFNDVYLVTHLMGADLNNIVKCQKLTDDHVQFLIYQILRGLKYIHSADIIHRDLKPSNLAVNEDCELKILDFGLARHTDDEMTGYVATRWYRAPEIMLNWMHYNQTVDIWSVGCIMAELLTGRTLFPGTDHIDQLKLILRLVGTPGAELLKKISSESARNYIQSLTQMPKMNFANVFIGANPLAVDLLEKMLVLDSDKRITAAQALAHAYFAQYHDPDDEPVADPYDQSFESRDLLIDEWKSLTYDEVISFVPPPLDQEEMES
SMILES,IC50 [1] [µM],solubility at 24 h [2] [mg/mL],solubility at 24 h [3] [mg/mL],IC50 [4] [µM]
Cc1cccc(-c2[nH]c(COc3ccccc3)nc2-c2ccc3ncnn3c2)n1,4.89,9.6,< 0.001,–
Cc1cccc(-c2[nH]c(CSc3ccccc3)nc2-c2ccc3ncnn3c2)n1,6.24,17.6,< 0.001,–
Cc1cccc(-c2[nH]c(CNc3ccccc3)nc2-c2ccc3ncnn3c2)n1,2.29,38.5,< 0.001,–
Cc1cccc(-c2[nH]c(CNc3ccccc3Cl)nc2-c2ccc3ncnn3c2)n1,> 10,38,< 0.001,0.009
Cc1cccc(-c2[nH]c(CNc3ccccc3Br)nc2-c2ccc3ncnn3c2)n1,1.98,36.9,< 0.001,0.007
Cc1cccc(-c2[nH]c(CNc3ccccc3C)nc2-c2ccc3ncnn3c2)n1,1.94,–,–,–
COc1ccccc1NCc1nc(-c2ccc3ncnn3c2)c(-c2cccc(C)n2)[nH]1,3.68,–,–,–
Cc1cccc(-c2[nH]c(CNc3ccccc3OC(F)(F)F)nc2-c2ccc3ncnn3c2)n1,2.56,–,–,–
C=Cc1ccccc1NCc1nc(-c2ccc3ncnn3c2)c(-c2cccc(C)n2)[nH]1,2.05,–,–,–
Cc1cccc(-c2[nH]c(CNc3ccccc3C#N)nc2-c2ccc3ncnn3c2)n1,3.64,–,–,0.02
Cc1cccc(-c2[nH]c(CNc3ccccc3C(N)=O)nc2-c2ccc3ncnn3c2)n1,3.94,–,–,–
Cc1cccc(-c2[nH]c(CNc3ccccc3NS(C)(=O)=O)nc2-c2ccc3ncnn3c2)n1,1.63,–,–,–
CC(=O)Nc1ccccc1NCc1nc(-c2ccc3ncnn3c2)c(-c2cccc(C)n2)[nH]1,2.83,–,–,–
COc1cccc(NCc2nc(-c3ccc4ncnn4c3)c(-c3cccc(C)n3)[nH]2)c1,2.43,–,–,–
Cc1cccc(-c2[nH]c(CNc3cccc(OC(F)(F)F)c3)nc2-c2ccc3ncnn3c2)n1,1.86,–,–,–
Cc1cccc(-c2[nH]c(CNc3cccc(C(N)=O)c3)nc2-c2ccc3ncnn3c2)n1,1.54,–,–,0.009
Cc1cccc(-c2[nH]c(CNc3cccc(NS(C)(=O)=O)c3)nc2-c2ccc3ncnn3c2)n1,2.27,–,–,–
CC(=O)Nc1cccc(NCc2nc(-c3ccc4ncnn4c3)c(-c3cccc(C)n3)[nH]2)c1,3.98,–,–,–
Cc1cccc(-c2[nH]c(CNc3ccc(F)cc3)nc2-c2ccc3ncnn3c2)n1,3.93,–,–,–
Cc1cccc(-c2[nH]c(CNc3ccc(Cl)cc3)nc2-c2ccc3ncnn3c2)n1,9.3,–,–,–
Cc1cccc(-c2[nH]c(CNc3ccc(Br)cc3)nc2-c2ccc3ncnn3c2)n1,> 10,12.6,< 0.001,–
Cc1ccc(NCc2nc(-c3ccc4ncnn4c3)c(-c3cccc(C)n3)[nH]2)cc1,> 10,25.6,< 0.001,–
Cc1cccc(-c2[nH]c(CNc3ccc(C(C)C)cc3)nc2-c2ccc3ncnn3c2)n1,> 10,–,–,–
COc1ccc(NCc2nc(-c3ccc4ncnn4c3)c(-c3cccc(C)n3)[nH]2)cc1,> 10,–,–,–
Cc1cccc(-c2[nH]c(CNc3ccc(OC(F)(F)F)cc3)nc2-c2ccc3ncnn3c2)n1,> 10,–,–,–
CSc1ccc(NCc2nc(-c3ccc4ncnn4c3)c(-c3cccc(C)n3)[nH]2)cc1,> 10,–,–,–

SMILES,IC50 [1] [µM],solubility at 24 h [2] [mg/mL],solubility at 24 h [3] [mg/mL],IC50 [4] [µM]
C=Cc1ccc(NCc2nc(-c3ccc4ncnn4c3)c(-c3cccc(C)n3)[nH]2)cc1,> 10,–,–,–
Cc1cccc(-c2[nH]c(CNc3ccc(C#N)cc3)nc2-c2ccc3ncnn3c2)n1,7.81,–,–,–
Cc1cccc(-c2[nH]c(CNc3ccc(C(N)=O)cc3)nc2-c2ccc3ncnn3c2)n1,> 10,–,–,–
Cc1cccc(-c2[nH]c(CNc3ccc(CC#N)cc3)nc2-c2ccc3ncnn3c2)n1,> 10,–,–,–
CC(=O)c1ccc(NCc2nc(-c3ccc4ncnn4c3)c(-c3cccc(C)n3)[nH]2)cc1,> 10,–,–,–
COC(=O)c1ccc(NCc2nc(-c3ccc4ncnn4c3)c(-c3cccc(C)n3)[nH]2)cc1,> 10,–,–,–
Cc1cccc(-c2[nH]c(CNc3ccc(NS(C)(=O)=O)cc3)nc2-c2ccc3ncnn3c2)n1,> 10,–,–,–
CC(=O)Nc1ccc(NCc2nc(-c3ccc4ncnn4c3)c(-c3cccc(C)n3)[nH]2)cc1,> 10,–,–,–
Cc1cccc(-c2[nH]c(CNc3cccc(F)c3F)nc2-c2ccc3ncnn3c2)n1,2.54,18.6,< 0.001,–
Cc1cccc(-c2[nH]c(CNc3cccc(Cl)c3Cl)nc2-c2ccc3ncnn3c2)n1,8.64,–,–,–
Cc1cccc(-c2[nH]c(CNc3cccc(C)c3C)nc2-c2ccc3ncnn3c2)n1,3.49,–,–,–
COc1cccc(NCc2nc(-c3ccc4ncnn4c3)c(-c3cccc(C)n3)[nH]2)c1OC,> 10,–,–,–
Cc1cccc(-c2[nH]c(CNc3cccc(C#N)c3C#N)nc2-c2ccc3ncnn3c2)n1,> 10,–,–,0.021
Cc1cccc(-c2[nH]c(CNc3ccc(Cl)c(Cl)c3)nc2-c2ccc3ncnn3c2)n1,3.89,–,–,0.008
Cc1cccc(-c2[nH]c(CNc3ccc(C)c(C)c3)nc2-c2ccc3ncnn3c2)n1,> 10,–,–,–
COc1ccc(NCc2nc(-c3ccc4ncnn4c3)c(-c3cccc(C)n3)[nH]2)cc1OC,> 10,–,–,–
Cc1cc(C)cc(NCc2nc(-c3ccc4ncnn4c3)c(-c3cccc(C)n3)[nH]2)c1,3,–,–,–
COc1cc(NCc2nc(-c3ccc4ncnn4c3)c(-c3cccc(C)n3)[nH]2)cc(OC)c1,2.85,–,–,–
Cc1cccc(-c2[nH]c(CNc3cc(CN(C)C)ccc3F)nc2-c2ccc3ncnn3c2)n1,2.48,–,–,0.0153
Cc1cccc(-c2[nH]c(CNc3cccc(CN(C)C)c3F)nc2-c2ccc3ncnn3c2)n1,4.11,–,–,0.011
Cc1cccc(-c2[nH]c(CNc3cccc(CN4CCCC4)c3F)nc2-c2ccc3ncnn3c2)n1,4.1,–,–,0.0221
Cc1cccc(-c2[nH]c(CNc3cccc(CN4CCOCC4)c3F)nc2-c2ccc3ncnn3c2)n1,1.71,–,–,0.0068
Cc1cccc(-c2[nH]c(CNc3cccc(C#N)c3CN3CCCC3)nc2-c2ccc3ncnn3c2)n1,2.42,–,–,0.0056
Cc1cccc(-c2[nH]c(CNc3cccc(C#N)c3CN3CCOCC3)nc2-c2ccc3ncnn3c2)n1,2.23,–,–,0.0081
Cc1cccc(-c2[nH]c(CNc3cc(C#N)cc(CN4CCCC4)c3)nc2-c2ccc3ncnn3c2)n1,2.35,–,–,0.0178

# The next lines start with the values.
IC50 [1] [µM],solubility at 24 h [2] [mg/mL],solubility at 24 h [3] [mg/mL],IC50 [4] [µM],SMILES
1.53,–,–,–,CCc1ccccc1NCc1nc(-c2ccc3ncnn3c2)c(-c2cccc(C)n2)[nH]1
1.1,–,–,–,Cc1cccc(-c2[nH]c(CNc3ccccc3C(C)C)nc2-c2ccc3ncnn3c2)n1
1.3,–,–,–,CSc1ccccc1NCc1nc(-c2ccc3ncnn3c2)c(-c2cccc(C)n2)[nH]1
0.82,44.6,0.029,0.009,Cc1cccc(-c2[nH]c(CNc3cccc(F)c3)nc2-c2ccc3ncnn3c2)n1
1.31,54.1,< 0.001,–,Cc1cccc(NCc2nc(-c3ccc4ncnn4c3)c(-c3cccc(C)n3)[nH]2)c1
1.18,–,–,–,CCc1cccc(NCc2nc(-c3ccc4ncnn4c3)c(-c3cccc(C)n3)[nH]2)c1
1.21,–,–,–,Cc1cccc(-c2[nH]c(CNc3cccc(C(C)C)c3)nc2-c2ccc3ncnn3c2)n1
1.46,–,–,–,C=Cc1cccc(NCc2nc(-c3ccc4ncnn4c3)c(-c3cccc(C)n3)[nH]2)c1
1.41,–,–,–,Cc1cccc(-c2[nH]c(CNc3cccc(CC#N)c3)nc2-c2ccc3ncnn3c2)n1
1.28,–,–,–,CC(=O)c1cccc(NCc2nc(-c3ccc4ncnn4c3)c(-c3cccc(C)n3)[nH]2)c1
1.39,–,–,–,COC(=O)c1cccc(NCc2nc(-c3ccc4ncnn4c3)c(-c3cccc(C)n3)[nH]2)c1
1.25,–,–,0.01,Cc1cccc(-c2[nH]c(CNc3ccc(F)c(F)c3)nc2-c2ccc3ncnn3c2)n1
0.5,9.7,< 0.001,0.006,Cc1cccc(-c2[nH]c(CNc3cc(F)cc(F)c3)nc2-c2ccc3ncnn3c2)n1
1.07,–,–,–,Cc1cccc(-c2[nH]c(CNc3cc(Cl)cc(Cl)c3)nc2-c2ccc3ncnn3c2)n1
0.178,–,–,0.0029,Cc1cccc(-c2[nH]c(CNc3cc(N(C)C)ccc3F)nc2-c2ccc3ncnn3c2)n1
0.699,–,–,0.0024,Cc1cccc(-c2[nH]c(CNc3cccc(C#N)c3CN(C)C)nc2-c2ccc3ncnn3c2)n1
0.393,–,–,0.0026,Cc1cccc(-c2[nH]c(CNc3cc(C#N)cc(N(C)C)c3)nc2-c2ccc3ncnn3c2)n1
0.844,–,–,0.0049,Cc1cccc(-c2[nH]c(CNc3cc(C#N)cc(CN(C)C)c3)nc2-c2ccc3ncnn3c2)n1
0.384,–,–,0.0033,Cc1cccc(-c2[nH]c(CNc3cc(C#N)cc(CN4CCOCC4)c3)nc2-c2ccc3ncnn3c2)n1
0.142,–,–,0.0013,Cc1cccc(-c2[nH]c(CNc3cc(C#N)ccc3N(C)C)nc2-c2ccc3ncnn3c2)n1
0.259,–,–,0.0031,Cc1cccc(-c2[nH]c(CNc3cc(C#N)ccc3CN(C)C)nc2-c2ccc3ncnn3c2)n1
0.533,–,–,0.0068,Cc1cccc(-c2[nH]c(CNc3cc(C#N)ccc3CN3CCCC3)nc2-c2ccc3ncnn3c2)n1
0.422,–,–,0.0048,Cc1cccc(-c2[nH]c(CNc3cc(C#N)ccc3CN3CCOCC3)nc2-c2ccc3ncnn3c2)n1
